The numbers were not newly measured in patent publication US20240197753A1, “PHARMACEUTICAL COMPOSITION FOR IMPROVING CARDIAC FUNCTION” (OSAKA UNIVERSITY, priority 2021, published 2024), which cites them from elsewhere.

`O=C(O)COc1cccc2c1CCC=C2CCO/N=C(\c1ccccc1)c1cccnc1` [ONO-1301, ({5-[2-({[(1E)-phenyl(pyridin-3-yl)methylene]amino}oxy)ethyl]-7,8-dihydronaphthalen-1-yl}oxy)acetic acid]: for the setting “oral dosing phase I study”, the “no-observed-adverse-effect level (blood ONO-1301 concentration)” value was 23.69 ng/mL and the “no-observed-effect level (blood ONO-1301 concentration)” value is 15.61 ng/mL. In addition, the “Safety margin (efficacy: platelet aggregation inhibition; side effects: epigastric pain, fever, cold sweat, diarrhea, etc.)” value (oral, Phase I clinical trials) was “narrow”.
